According to ChEMBL document CHEMBL1135249, “Probing the overlap of chorismate mutase and prephenate dehydrogenase sites in the escherichia coli T-protein: a dehydrogenase-selective inhibitor” (Bioorg Med Chem Lett, 2002):
pIC50, pKi: −log10 of the molar value.

Tests used:
[1] = Tested for its inhibitory activity against the enzyme prephenate dehydrogenase (PDH) in Escherichia coli T-protein
[2] = Tested for its inhibitory activity against the enzyme chorismate mutase (CM) in Escherichia coli T-protein
[3] = Tested for the inhibition against prephenate dehydrogenase; design: species or system Escherichia coli
[4] = Tested for its inhibitory activity against the enzyme chorismate mutase (CM) in Escherichia coli T-protein; no effect up to 1 mM

In the case of `C=C(O[C@@H]1C=C(C(=O)O)C(O)C(O)[C@H]1O)C(=O)O` (stereo partly specified), the pKi [1] was 3.96 and the pKi [2] was 3.39.

In the case of `O=P(O)(O)C12C[C@H]3C[C@@H](C1)C[C@@H](C2)C3`, the pKi [1] was 3.85 and the pKi [2] was 3.70.

Work on `O=C(O)[C@]12C[C@H]3C[C@H](C[C@H](C3)C1)C2` yielded a pKi [1] of 3.51 and a pKi [2] of 3.37.

For `C=C(O[C@@H]1C=C(C(=O)O)CCC1O)C(=O)O` (stereo partly specified), the pKi [1] was 3.23 and the pKi [2] was 3.37.

In the case of `O=C(O)[C@@H]1Cc2cccc3cccc(c23)C[C@H]1C(=O)O` (racemic), the pKi [1] was 3.67, the pIC50 [3] was 3.60 and the Ki [4] was “no effect up to 1 mM”.
